Test results taken from patent US20090035306A1 (KALYPSYS, INC., priority 2006, published 2009).

Tests used:
[1] = molecular target: T1, human TGR5 (Homo sapiens, UniProt Q8TDU6); test: cAMP production assay in HEK293 cells stably expressing TGR5 (LANCE TR-FRET); assay type: cell-based; conditions: 30 minutes stimulation, read-out: cAMP Production in 293-TGR5 Cells EC50
T1 construct: expressed in transfected cells
T1 sequence (Q8TDU6 1-330): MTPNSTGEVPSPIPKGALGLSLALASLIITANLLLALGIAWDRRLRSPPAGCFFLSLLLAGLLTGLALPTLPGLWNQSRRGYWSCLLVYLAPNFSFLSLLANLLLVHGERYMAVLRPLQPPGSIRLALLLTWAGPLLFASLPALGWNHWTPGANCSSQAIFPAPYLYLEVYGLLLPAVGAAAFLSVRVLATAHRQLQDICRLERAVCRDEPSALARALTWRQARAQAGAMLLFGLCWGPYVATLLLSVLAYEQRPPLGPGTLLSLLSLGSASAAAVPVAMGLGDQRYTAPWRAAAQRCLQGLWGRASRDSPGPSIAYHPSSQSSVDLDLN
Summary of the method: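 HEK293 cells stably transfected with human TGR5, incubated overnight in DMEM with 0.1% FBS, then given IBMX (1 mM final) and stimulated with compounds for 30 minutes. cAMP measured by LANCE TR-FRET after 1-7 h detection at room temperature. EC50 values reported as ≦10 μM (+) or >10 μM (−).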

[2] = system: Mice; test: Glucose tolerance test (GTT), glucose disposal; assay type: in vivo, mouse; conditions: 30 mg/kg
Experimental: (§1) Vehicle is CMC-Tween: 0.5% CMC+0.25% Tween 20 at an appropriate ml/kg. Dextrose dose per mouse=2 g dextrose/kg made from 0.5 g/ml stock dextrose solution. Compound 1 dose per mouse=30 mg/kg in CMC/Tween vehicle made from 4 mg/mL stock solution by adding 50 μL DMSO to 20 mg Compound 1, stirring to make a paste, adding 1 ml CMC/Tween with stirring, sonicating for 8 minutes on energy 05, and adjusting to 5 ml with CMC/Tween.
Glucose Tolerance Test (GTT)/Insulin Test
(§2) Mice (5 per group) were fasted at 6 am for an experiment at noon. Blood glucose was measured from tail nick blood using an Accucheck—Compact Monitoring Kit (Roche Diagnostics, Indianapolis Ind.). Baseline (time=−15 min) blood glucose concentration was determined for all mice and tail nick blood samples were collected. 2 g/kg dextrose (Hospira, Lake Forest, Ill.) was administered orally at time 0. Blood samples were collected from the following mice via tail nick blood draw (˜100 μL) into EDTA microtainer tubes at the following time points: −15, 0, 3, 6, 9, 12, 15, 20, 30 and 120 min. Terminal blood samples were collected from portal vein draws in three mice at t=20. Blood plasma was harvested from blood collected in EDTA microvettes by centrifugation (10 min at […]). Plasma was stored in −80 C freezer to be analyzed for other chemistry measurements.

[3] = system: Mice; test: Glucose-stimulated insulin secretion (GTT/insulin test, insulin ELISA); assay type: in vivo, mouse; conditions: 30 mg/kg; for Plasma Insulin, AUC, Mean: glucose-stimulated insulin secretion, in ng·min/mL (unit assumed)
Experimental: as §1
as §2, with “Blood samples were collected from the following mice via tail nick blood draw (˜100 μL) into EDTA microtainer tubes at the following time points: −15, 0, 3, 6, 9, 12, 15, 20, 30 and 120 min.” left out
A Mercodia ultrasensitive mouse insulin ELISA kit (Mercodia AB, Uppsala, Sweden) was used in a 96-well coated plate. All reagents and samples were brought to room temperature before use, Calibrator concentrations were 0.07, 0.13, 0.25, 0.63, 1.9, 5.2, 13.0, and 64.0 μg/L, and a calibration curve was prepared for each assay run. To 25 μL calibrator 0 in each well was added 5 μL calibrators and 5 μL of samples/standards in duplicate, then 50 μL dilute enzyme conjugate 11× in enzyme conjugate buffer. This was incubated on a shaker for 2 hours at room temperature (18-25° C.), and each well was washed 5 times in 350 μL wash buffer and aspirated completely. After final wash, plate was inverted and tapped firmly against absorbent paper. 200 μL substrate TMB was added to each well and incubated for 30 minutes. 50 μL stop solution was added to each well, and the plate was placed on the shaker for about 5 seconds to ensure mixing of substrate and stop Solution. Absorbance was measured at 450 nm.

[4] = system: Mice; test: Glucose tolerance test (GTT), glucose disposal; assay type: in vivo, mouse; conditions: 30 mg/kg, 2 g/kg dextrose orally at time 0, time 60 min
[5] = 2 g/kg dextrose orally at time 0, time 0 min
[6] = 2 g/kg dextrose orally at time 0, time 3 min
[7] = 2 g/kg dextrose orally at time 0, time 6 min
[8] = 2 g/kg dextrose orally at time 0, time 9 min
[9] = 2 g/kg dextrose orally at time 0, time 12 min
[10] = 2 g/kg dextrose orally at time 0, time 15 min
[11] = 2 g/kg dextrose orally at time 0, time 20 min
[12] = 2 g/kg dextrose orally at time 0, time 30 min
[13] = 2 g/kg dextrose orally at time 0, time 120 min
[14] = 2 g/kg dextrose orally at time 0, time −15 min (baseline)

EC50 [1]: ≤ 10 µM
Compound: O=c1c2ccccc2nc(-c2ccc(F)cc2)n1NCc1ccc(Br)cc1 [Example 1]
Plasma Glucose, Mean [2, 5]: 220.4 mg/dL
Plasma Glucose, Mean [2, 6]: 272.2 mg/dL
Plasma Glucose, Mean [2, 7]: 332.6 mg/dL
Plasma Glucose, Mean [2, 8]: 398.2 mg/dL
Plasma Glucose, Mean [2, 9]: 427.2 mg/dL
Plasma Glucose, Mean [2, 10]: 430.0 mg/dL
Plasma Glucose, Mean [2, 11]: 425.9 mg/dL
Plasma Glucose, Mean [2, 12]: 354.6 mg/dL
Plasma Glucose, Mean [2, 13]: 213.2 mg/dL
Plasma Glucose, Mean [2, 14]: 170.0 mg/dL
Plasma Glucose, AUC, Mean ([2]; glucose tolerance test, 0-120 min): 16400
Plasma Insulin, Mean [3, 5]: 1.56 ng/mL
Plasma Insulin, Mean [3, 6]: 2.35 ng/mL
Plasma Insulin, Mean [3, 7]: 3.24 ng/mL
Plasma Insulin, Mean [3, 8]: 3.94 ng/mL
Plasma Insulin, Mean [3, 9]: 4.18 ng/mL
Plasma Insulin, Mean [3, 10]: 4.05 ng/mL
Plasma Insulin, Mean [3, 11]: 3.79 ng/mL
Plasma Insulin, Mean [3, 12]: 1.82 ng/mL
Plasma Insulin, Mean ([3]; 2 g/kg dextrose orally at time 0, time 60 min): 1.23 ng/mL
Plasma Insulin, Mean [3, 13]: 1.17 ng/mL
Plasma Insulin, Mean [3, 14]: 1.78 ng/mL
Plasma Insulin, AUC, Mean ([3]; 0-15 min): 35.15
Plasma Insulin, AUC, Mean ([3]; 0-30 min): 68.39
Plasma Glucose, Mean [4]: 294.2 mg/dL
